This experiment deals with T1, human Cav2.2 (composed of the subunits α1, β3 and α2δ) (Homo sapiens, UniProt Q00975).
T1 construct: expressed in transfected cells
In words: FLIPR assay (TSA201 cells stably transfected with human Cav2.2 and human Kir2.3, FLUO-4 Ca2+ signal, KCl depolarization). It is filed as cell-based. The following applies: 70 mM KCl depolarization, average value. In short, it runs like this: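 TSA201 cells co-expressing Cav2.2 (α1, β3, α2δ) and Kir2.3 were loaded with FLUO-4 for 1 h at room temperature. Compound in HBSS with 1% DMSO was preincubated 15 min, then cells were depolarized with 70 mM final KCl (with CaCl2 and HEPES) and the Ca2+ fluorescence was read on FLIPR.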

T1 sequence (Q00975 whole entry): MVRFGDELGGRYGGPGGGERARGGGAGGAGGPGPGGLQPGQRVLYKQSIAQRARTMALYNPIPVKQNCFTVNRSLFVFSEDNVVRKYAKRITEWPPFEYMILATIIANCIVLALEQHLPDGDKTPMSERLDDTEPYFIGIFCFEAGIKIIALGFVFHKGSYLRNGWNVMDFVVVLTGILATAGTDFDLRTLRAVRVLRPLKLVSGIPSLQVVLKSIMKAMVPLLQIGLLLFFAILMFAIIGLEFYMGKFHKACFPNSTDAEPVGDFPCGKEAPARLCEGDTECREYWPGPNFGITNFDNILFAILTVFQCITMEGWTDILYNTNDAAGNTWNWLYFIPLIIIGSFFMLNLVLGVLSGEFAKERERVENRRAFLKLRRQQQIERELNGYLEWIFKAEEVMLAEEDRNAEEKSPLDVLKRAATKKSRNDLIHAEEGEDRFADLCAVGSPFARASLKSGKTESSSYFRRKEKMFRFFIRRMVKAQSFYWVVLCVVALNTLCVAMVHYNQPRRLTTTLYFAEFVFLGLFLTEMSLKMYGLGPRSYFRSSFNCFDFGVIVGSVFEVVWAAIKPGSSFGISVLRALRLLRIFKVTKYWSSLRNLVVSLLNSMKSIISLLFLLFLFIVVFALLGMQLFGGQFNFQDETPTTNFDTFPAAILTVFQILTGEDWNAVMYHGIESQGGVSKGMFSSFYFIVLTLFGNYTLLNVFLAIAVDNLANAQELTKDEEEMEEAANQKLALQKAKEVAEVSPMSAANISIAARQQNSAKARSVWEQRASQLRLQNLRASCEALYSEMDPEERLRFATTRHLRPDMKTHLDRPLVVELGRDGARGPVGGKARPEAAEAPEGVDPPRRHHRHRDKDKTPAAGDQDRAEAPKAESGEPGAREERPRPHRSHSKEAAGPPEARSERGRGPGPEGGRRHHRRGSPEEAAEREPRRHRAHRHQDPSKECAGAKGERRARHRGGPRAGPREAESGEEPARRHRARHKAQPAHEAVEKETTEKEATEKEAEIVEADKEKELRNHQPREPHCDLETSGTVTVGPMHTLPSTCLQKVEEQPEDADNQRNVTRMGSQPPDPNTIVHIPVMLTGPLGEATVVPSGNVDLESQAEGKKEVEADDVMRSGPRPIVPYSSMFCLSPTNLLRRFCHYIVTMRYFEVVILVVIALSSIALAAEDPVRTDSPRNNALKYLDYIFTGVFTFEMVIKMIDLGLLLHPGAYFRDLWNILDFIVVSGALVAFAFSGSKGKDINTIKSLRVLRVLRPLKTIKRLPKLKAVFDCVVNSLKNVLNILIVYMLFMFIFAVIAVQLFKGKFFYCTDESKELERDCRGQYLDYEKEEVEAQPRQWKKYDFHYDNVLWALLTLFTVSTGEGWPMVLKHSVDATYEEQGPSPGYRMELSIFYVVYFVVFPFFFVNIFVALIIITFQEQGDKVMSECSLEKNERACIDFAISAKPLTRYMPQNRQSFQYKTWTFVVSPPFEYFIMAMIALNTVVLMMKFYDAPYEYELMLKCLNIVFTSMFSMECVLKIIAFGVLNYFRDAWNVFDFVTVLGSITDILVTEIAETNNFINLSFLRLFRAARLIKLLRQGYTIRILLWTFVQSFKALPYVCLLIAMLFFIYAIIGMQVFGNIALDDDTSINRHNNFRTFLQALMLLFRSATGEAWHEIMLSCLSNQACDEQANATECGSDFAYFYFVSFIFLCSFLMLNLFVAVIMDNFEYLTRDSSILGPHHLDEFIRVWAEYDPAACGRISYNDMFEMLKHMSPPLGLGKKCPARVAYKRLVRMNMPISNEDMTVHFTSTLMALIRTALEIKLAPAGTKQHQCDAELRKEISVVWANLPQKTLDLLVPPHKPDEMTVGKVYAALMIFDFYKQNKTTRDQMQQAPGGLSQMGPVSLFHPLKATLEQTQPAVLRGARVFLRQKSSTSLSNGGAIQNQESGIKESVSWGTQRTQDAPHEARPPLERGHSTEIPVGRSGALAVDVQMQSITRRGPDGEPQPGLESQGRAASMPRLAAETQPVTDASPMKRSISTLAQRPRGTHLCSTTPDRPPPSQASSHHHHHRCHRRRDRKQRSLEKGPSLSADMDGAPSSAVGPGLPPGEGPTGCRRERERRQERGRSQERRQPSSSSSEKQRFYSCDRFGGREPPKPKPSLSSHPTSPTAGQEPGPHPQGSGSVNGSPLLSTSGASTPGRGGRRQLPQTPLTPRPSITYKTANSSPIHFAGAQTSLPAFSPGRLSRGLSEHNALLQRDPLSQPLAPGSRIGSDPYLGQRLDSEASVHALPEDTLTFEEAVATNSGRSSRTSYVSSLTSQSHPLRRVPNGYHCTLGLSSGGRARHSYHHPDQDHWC
T1 sequence (P54284 whole entry partner): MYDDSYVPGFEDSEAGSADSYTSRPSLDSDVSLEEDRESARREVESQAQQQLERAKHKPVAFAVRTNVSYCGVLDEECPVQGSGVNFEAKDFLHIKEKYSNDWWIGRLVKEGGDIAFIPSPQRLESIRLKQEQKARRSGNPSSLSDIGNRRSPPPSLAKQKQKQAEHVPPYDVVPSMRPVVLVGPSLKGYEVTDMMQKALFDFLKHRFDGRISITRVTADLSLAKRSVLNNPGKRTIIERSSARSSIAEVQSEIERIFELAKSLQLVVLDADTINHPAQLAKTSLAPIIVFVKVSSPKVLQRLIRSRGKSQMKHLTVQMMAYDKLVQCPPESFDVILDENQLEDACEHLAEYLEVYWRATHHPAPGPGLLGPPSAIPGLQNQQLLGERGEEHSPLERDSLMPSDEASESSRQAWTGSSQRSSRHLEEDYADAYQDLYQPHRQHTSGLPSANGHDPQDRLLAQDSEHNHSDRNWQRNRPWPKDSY
T1 sequence (P54289 25-946 partner limits assumed): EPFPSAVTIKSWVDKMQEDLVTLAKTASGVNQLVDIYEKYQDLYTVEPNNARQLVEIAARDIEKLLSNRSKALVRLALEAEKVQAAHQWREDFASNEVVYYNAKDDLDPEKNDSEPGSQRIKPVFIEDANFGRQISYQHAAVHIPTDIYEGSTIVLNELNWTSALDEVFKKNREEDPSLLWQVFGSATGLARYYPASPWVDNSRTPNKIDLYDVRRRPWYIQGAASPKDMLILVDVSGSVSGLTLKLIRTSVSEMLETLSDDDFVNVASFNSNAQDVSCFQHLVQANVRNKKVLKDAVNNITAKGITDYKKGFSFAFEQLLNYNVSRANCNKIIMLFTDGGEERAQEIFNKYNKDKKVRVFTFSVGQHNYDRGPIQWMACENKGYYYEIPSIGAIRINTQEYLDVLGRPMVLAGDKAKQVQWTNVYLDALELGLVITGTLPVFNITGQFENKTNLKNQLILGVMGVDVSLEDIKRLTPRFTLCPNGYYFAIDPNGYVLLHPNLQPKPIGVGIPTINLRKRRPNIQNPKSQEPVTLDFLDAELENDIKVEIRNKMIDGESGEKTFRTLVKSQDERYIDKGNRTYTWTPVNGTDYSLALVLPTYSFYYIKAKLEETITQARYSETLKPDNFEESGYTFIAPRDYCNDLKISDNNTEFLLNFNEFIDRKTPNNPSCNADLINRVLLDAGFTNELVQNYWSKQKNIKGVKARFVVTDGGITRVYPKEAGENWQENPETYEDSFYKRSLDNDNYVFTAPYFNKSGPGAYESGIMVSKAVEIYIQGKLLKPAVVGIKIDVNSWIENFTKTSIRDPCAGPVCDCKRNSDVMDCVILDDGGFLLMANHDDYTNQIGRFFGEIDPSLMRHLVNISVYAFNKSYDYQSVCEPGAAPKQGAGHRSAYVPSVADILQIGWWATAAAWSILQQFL
T1 sequence (P54289 947-1103 partner limits assumed): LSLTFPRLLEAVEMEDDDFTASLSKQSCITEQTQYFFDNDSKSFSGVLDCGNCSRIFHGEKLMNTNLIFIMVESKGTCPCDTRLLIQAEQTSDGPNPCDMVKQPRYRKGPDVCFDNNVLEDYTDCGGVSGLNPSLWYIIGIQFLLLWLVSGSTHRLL

As a reminder, the IC50 is the concentration at which inhibition is half-maximal. The low end stands for inhibition by little substance, the high end for a need for much substance. With `CC(=O)N(Cc1csc(N2CCCC(CO)C2)n1)c1ccc(F)cc1` (centres unmarked) [Compound 225, N-(4-fluorophenyl)-N-({2-[3-(hydroxymethyl)piperidin-1-yl]-1,3-thiazol-4-yl}methyl)acetamide], the midpoint of inhibition, the IC50, lay at 16.4 µM.

The compound `CC(=O)N(Cc1ccc(N2CCCN(C)CC2)nc1)c1ccc(F)cc1` [Compound 226, N-(4-fluorophenyl)-N-{[6-(4-methyl-1,4-diazepan-1-yl)pyridin-3-yl]methyl}acetamide] gave an IC50 of 26.2 µM.

For the compound `CC(=O)N(Cc1ccc(N2CCOCC2)nc1)c1ccc(F)cc1` [Compound 227, N-(4-fluorophenyl)-N-[(6-morpholin-4-ylpyridin-3-yl)methyl]acetamide], the IC50 was found to be 35 µM.

Take `CCN(CC)c1ccc(CN(C(C)=O)c2ccc(F)cc2)cn1` [Compound 228, N-{[6-(diethylamino)pyridin-3-yl]methyl}-N-(4-fluorophenyl)acetamide]: half-maximal inhibition (IC50) required 12.6 µM.

For `CC(=O)N(Cc1ccc(N2CCC(C#N)CC2)nc1)c1ccc(F)cc1` [Compound 229, N-{[6-(4-cyanopiperidin-1-yl)pyridin-3-yl]methyl}-N-(4-fluorophenyl)acetamide], the IC50 worked out at 19.7 µM.

On to `CC(=O)N(Cc1ccc(N(C)CCO)nc1)c1ccc(F)cc1` [Compound 230, N-(4-fluorophenyl)-N-({6-[(2-hydroxyethyl)(methyl)amino]pyridin-3-yl}methyl)acetamide], for which the IC50 turned out to be 45.3 µM.

In turn, `CC(=O)N(Cc1ccc(N2CCC(O)CC2)nc1)c1ccc(F)cc1` [Compound 231, N-(4-fluorophenyl)-N-{[6-(4-hydroxypiperidin-1-yl)pyridin-3-yl]methyl}acetamide] came in with an IC50 of 49.7 µM.

As to `CC(=O)N(Cc1ccc(N2CCCC(O)C2)nc1)c1ccc(F)cc1` (centres unmarked) [Compound 232, N-(4-fluorophenyl)-N-{[6-(3-hydroxypiperidin-1-yl)pyridin-3-yl]methyl}acetamide], the IC50 was determined as 30.2 µM.

For the compound `CC(=O)N(Cc1ccc(N2CCC(CO)CC2)nc1)c1ccc(F)cc1` [Compound 233, N-(4-fluorophenyl)-N-({6-[4-(hydroxymethyl)piperidin-1-yl]pyridin-3-yl}methyl)acetamide], the IC50 stood at 22.2 µM.

`CC(=O)N(Cc1ccc(N2CCCC(CO)C2)nc1)c1ccc(F)cc1` (centres unmarked) [Compound 234, N-(4-fluorophenyl)-N-({6-[3-(hydroxymethyl)piperidin-1-yl]pyridin-3-yl}methyl)acetamide]: the IC50 is 13.9 µM.

`CC(=O)N(Cc1ccc(N2CCC(CO)CC2)nc1)C1CCCC1` [Compound 235, N-cyclopentyl-N-({6-[4-(hydroxymethyl)piperidin-1-yl]pyridin-3-yl}methyl)acetamide] registered an IC50 of 36.4 µM.

Turning to `CC(=O)N(Cc1ccc(N2CCN(C)CC2)nc1)C1CCCCC1` [Compound 236, N-cyclohexyl-N-{[6-(4-methylpiperzin-1-yl)pyridin-3-yl]methyl}acetamide], the IC50 was found to be 29.4 µM.

Take `CC(=O)N(Cc1ccc(N2CCC(CO)CC2)nc1)C1CCCCC1` [Compound 237, N-cyclohexyl-N-({6-[4-(hydroxymethyl)piperidin-1-yl]pyridin-3-yl}methyl)acetamide]: the IC50 is 23.9 µM.

With `CCN(c1nc(CN(C(C)=O)C2CCC(C(C)(C)C)CC2)cs1)C1CC1` (centres unmarked) [Compound 238, N-(4-tert-butylcyclohexyl)-N-({2-[cyclopropyl(ethyl)amino]-1,3-thiazol-4-yl}methyl)acetamide], the half-maximal inhibitory concentration (IC50) was determined as 3.3 µM.

Take `CC1CN(c2nc(CN(C(=O)C(C)(C)C)c3ccc(F)cc3)cs2)CC(C)O1` (centres unmarked) [Compound 239, 2,2-dimethylpropanamide N-{[2-(2,6-dimethylmorpholin-4-yl)-1,3-thiazol-4-yl]methyl}-N-(4-fluorophenyl)-]: the IC50 was determined as 3.4 µM.

`CC(C)(C)C(=O)N(Cc1csc(-c2cnc3ccccc3c2)n1)c1ccc(F)cc1` [Compound 240, N-(4-fluorophenyl)-2,2-dimethyl-N-[(2-quinolin-3-yl-1,3-thiazol-4-yl)methyl]propanamide] returned an IC50 of 10.1 µM.

`CC(C)(C)C(=O)N(Cc1csc(-c2ccc(C(F)(F)F)cc2)n1)c1ccc(F)cc1` [Compound 241, N-(4-fluorophenyl)-2,2-dimethyl-N-({2-[4-(trifluoromethyl)phenyl]-1,3-thiazol-4-yl}methyl)propanamide] came in with an IC50 of 6.7 µM.

Regarding `CC(C)(C)C(=O)N(Cc1csc(-c2cccc(C(F)(F)F)c2)n1)c1ccc(F)cc1` [Compound 242, N-(4-fluorophenyl)-2,2-dimethyl-N-({2-[3-(trifluoromethyl)phenyl]-1,3-thiazol-4-yl]methyl)propanamide], the midpoint of inhibition, the IC50, lay at 5.5 µM.

As to `CC(C)(C)C(=O)N(Cc1csc(-c2ccccc2C(F)(F)F)n1)c1ccc(F)cc1` [Compound 243, N-(4-fluorophenyl)-2,2-dimethyl-N-({2-[2-(trifluoromethyl)phenyl]-1,3-thiazol-4-yl}methyl)propanamide], inhibition was half-maximal at 4.1 µM (IC50).

`CC(C)(C)C(=O)N(Cc1csc(-c2ccc(O)cc2)n1)c1ccc(F)cc1` [Compound 244, N-(4-fluorophenyl)-N-{[2-(4-hydroxyphenyl)-1,3-thiazol-4-yl]methyl}-2,2-dimethylpropanamide] yielded an IC50 of 7.3 µM.

Turning to `CC(C)(C)C(=O)N(Cc1csc(-c2cccc(O)c2)n1)c1ccc(F)cc1` [Compound 245, N-(4-fluorophenyl)-N-{[2-(3-hydroxyphenyl)-1,3-thiazol-4-yl]methyl}-2,2-dimethylpropanamide], the IC50 turned out to be 5.4 µM.

`CC(C)(C)C(=O)N(Cc1csc(-c2ccccc2O)n1)c1ccc(F)cc1` [Compound 246, N-(4-fluorophenyl)-N-{[2-(2-hydroxyphenyl)-1,3-thiazol-4-yl]methyl}-2,2-dimethylpropanamide]: half-maximal inhibition (IC50) required 7.2 µM.

In turn, `CC(C)(C)C(=O)N(Cc1csc(-c2ccc(F)cc2)n1)c1ccc(F)cc1` [Compound 247, N-(4-fluorophenyl)-N-{[2-(4-fluorophenyl)-1,3-thiazol-4-yl]methyl}-2,2-dimethylpropanamide] returned an IC50 of 5 µM.

The compound `CC(C)(C)C(=O)N(Cc1csc(-c2cccc(F)c2)n1)c1ccc(F)cc1` [Compound 248, N-(4-fluorophenyl)-N-{[2-(3-fluorophenyl)-1,3-thiazol-4-yl]methyl}-2,2-dimethylpropanamide] showed an IC50 of 5.3 µM.

Turning to `CC(C)(C)C(=O)N(Cc1csc(-c2ccccc2F)n1)c1ccc(F)cc1` [Compound 249, N-(4-fluorophenyl)-N-{[2-(2-fluorophenyl)-1,3-thiazol-4-yl]methyl}-2,2-dimethylpropanamide], the half-inhibitory concentration (IC50) was found to be 7.9 µM.

Consider `CN1CCN(c2ccc(CN(C(=O)C3CCCO3)c3ccc(F)cc3)cn2)CC1` (centres unmarked) [Compound 250, N-(4-fluorophenyl)-N-{[6-(4-methylpiperazin-1-yl)pyridin-3-yl]methyl}tetrahydrofuran-2-carboxamide], for which it took 34.4 µM to reach half-maximal inhibition (IC50).

For the compound `O=C(C1CCCO1)N(Cc1ccc(Cl)nc1)c1ccc(F)cc1` (centres unmarked) [Compound 252, N-[(6-chloropyridin-3-yl)methyl]-N-(4-fluuorophenyl)tetrahydrofuran-2-carboxamide], inhibition was half-maximal at 13.4 µM (IC50).

As for `CC(C)(C)OC(=O)N1CC[C@H](C(=O)N(Cc2ccc(Cl)nc2)c2ccc(F)cc2)C1` [Compound 254, TERT-BUTYL (3S)-3-{[(6-CHLOROPYRIDIN-3-YL)METHYL](4-FLUOROPHENYL)CARBAMOYL}PYRROLIDINE-1-CARBOXYLATE], inhibition was half-maximal at 2.9 µM (IC50).

With `CC(C)(C)OC(=O)N1CC[C@@H](C(=O)N(Cc2ccc(Cl)nc2)c2ccc(F)cc2)C1` [Compound 255, tert-butyl (3R)-3-{[(6-chloropyridin-3-yl)methyl](4-fluorophenyl)carbamoyl}pyrrolidine-1-carboxylate], the IC50 was determined as 2.8 µM.

Compound `CN1CCN(c2ccc(CN(C(=O)[C@H]3CCN(C(=O)OC(C)(C)C)C3)c3ccc(F)cc3)cn2)CC1` [Compound 256, tert-butyl (3S)-3-[(4-fluorophenyl){[6-(4-methylpiperazin-1-yl)pyridin-3-yl]methyl}carbamoyl]pyrrolidine-1-carboxylate] gave an IC50 of 12.6 µM.

Turning to `CN1CCN(c2ccc(CN(C(=O)[C@@H]3CCN(C(=O)OC(C)(C)C)C3)c3ccc(F)cc3)cn2)CC1` [Compound 257, tert-butyl (3R)-3-[(4-fluorophenyl){[6-(4-methylpiperazin-1-yl)pyridin-3-yl]methyl}carbamoyl]pyrrolidine-1-carboxylate], 22.9 µM corresponded to half-maximal inhibition (IC50).

As to `CN1CCN(c2ccc(CN(C(=O)[C@H]3CCNC3)c3ccc(F)cc3)cn2)CC1` [Compound 258, (3S)-N-(4-fluorophenyl)-N-{[6-(4-methylpiperazin-1-yl)pyridin-3-yl]methyl}pyrrolidine-3-carboxamide], the half-inhibitory concentration (IC50) was found to be 57.7 µM.

The compound `CN1CCN(c2ccc(CN(C(=O)[C@@H]3CCNC3)c3ccc(F)cc3)cn2)CC1` [Compound 259, (3R)-N-(4-fluorophenyl)-N-{[6-(4-methylpiperazin-1-yl)pyridin-3-yl]methyl}pyrrolidine-3-carboxamide] had an IC50 of 59.5 µM.

Take `CN1CCN(c2ccc(CN(C(=O)[C@H]3CCN(C(=O)C(C)(C)C)C3)c3ccc(F)cc3)cn2)CC1` [Compound 260, (3S)-1-(2,2-dimethylpropanoyl)-N-(4-fluorophenyl)-N-{[6-(4-methylpiperazin-1-yl)pyridin-3-yl]methyl}pyrrolidine-3-carboxamide]: the IC50 was 47.3 µM.

As for `CN1CCN(c2ccc(CN(C(=O)[C@@H]3CCN(C(=O)C(C)(C)C)C3)c3ccc(F)cc3)cn2)CC1` [Compound 261, (3R)-1-(2,2-dimethylpropanoyl)-N-(4-fluorophenyl)-N-{[6-(4-methylpiperazin-1-yl)pyridin-3-yl]methyl}pyrrolidine-3-carboxamide], the IC50 is 55.6 µM.
